These results are taken from US20070275911A1, “Targeted Drug-Formaldehyde Conjugates and Methods of Making and Using the Same” (priority 2003, published 2007).

In brackets after ≈: the same amount, converted by molar mass. Like-named read-outs stand apart in the source and are kept apart here. Residues, ends and D or L forms follow the SMILES beside them. *: point of attachment. X1 = NOCC(=O)NCCOCCN* A value given as a limit tells only on which side of the number the result lay.

Data set [1] can be described thus: Water solubility and storage stability of RGD constructs.
Data set [2] relates to human breast cancer xenografts. The conditions noted are these: same time period (10 days); cited from earlier work.
For data set [3] the following is noted: cell line not stated; cited from earlier work.
For data set [4], the system named is MDA-MB-23 1, and BT-20 human breast cancer cells. The conditions noted are these: cited from earlier work.
The next data set concerns Human erythrocytes. The note with it: cited from earlier work.
A further data set relates to S. aureus ATCC 25723. The note with it: cited from earlier work.
For a further data set, the system named is 3T3 mouse fibroblasts. The conditions noted are these: cited from earlier work.
For a further data set, the system named is E. coli ATCC 25922. The note with it: cited from earlier work.
For the next data set, the system named is P. aeruginosa ATCC 27853. The conditions noted are these: cited from earlier work.
The conditions of data set [5]: cited from earlier work; for tolerance by mice: doxoform: doses as low as 1 mg/kg, epidoxoform: up to 150% of MTD of doxorubicin.
In a further data set the test system is MCF-7. The note with it: sensitive MCF-7; cited from earlier work.
Another data set deals with MCF-7/ADR. The note with it: resistant MCF-7/ADR; cited from earlier work.
The target of data set [6] is T1, ανβ3 integrin present on viable MDA-MB-435 cells (Homo sapiens, UniProt P05106+P06756).
T1 construct: endogenous in cells
Put plainly: Vitronectin cell adhesion (competition) assay. It is filed as cell-based. From the text: The data are presented as the mean fluorescence for each condition with the background, drug-free cell fluorescence subtracted.

For data set [7] the following is noted: buffer, pH 7.4; cited from earlier work.
Data set [8] relates to Staphylococcus aureus Mu 50 (VISA). The conditions noted are these: for MIC: Mu 50 VISA.
Data set [9] has as its system Staphylococcus aureus 8325 (susceptible). Put plainly: microbe, parasite or virus in culture.
Data set [10] deals with Staphylococcus aureus Mu 50 (VISA). Put plainly: microbe, parasite or virus in culture.
The test system of data set [11] is Staphylococcus aureus IL-F (VISA). Put plainly: microbe, parasite or virus in culture.
For data set [12], the system named is Staphylococcus aureus IL-A (Hetero VISA). Put plainly: microbe, parasite or virus in culture.
Data set [13] deals with Staphylococcus aureus Mu 3 (Hetero VISA). Put plainly: microbe, parasite or virus in culture.
The next data set deals with MCF-7 cells. Put plainly: Breast cancer cell growth inhibition, 4 h treatment. The conditions noted are these: MCF-7 (ER/AEBS/MDR +/+/−), 4 h treatment. The protocol:
(§1) Breast cancer cell growth inhibition: The ER-targeted DOX-formaldehyde conjugates, 11a-c, were evaluated against four breast cancer cell lines that differ in terms of estrogen receptor and multidrug resistance expression. MCF-7 cells are human breast adenocarcinoma cells that express estrogen receptor at a level of 195,000 sites/cell. MCF-7/Adr cells are an ER-negative, doxorubicin-resistant variant of the parent MCF-7 that express the multidrug resistance (MDR) phenotype. MDA-MB-231 and MDA-MB-435 are ER-negative human breast adenocarcinoma and ductal carcinoma cells, respectively. All cytotoxins were formulated as 100× solutions in DMSO/1% AcOH and delivered to cells as 1% DMSO (0.01% AcOH) in cell culture medium. In all experiments cell treatment lasted 4 h.
(§2) In Vitro cellular growth inhibition experiments: The IC50 for the targeted formaldehyde conjugates and all control compounds were performed as previously described with minor modifications. All compounds were solubilized in dimethylsulfoxide containing 1% v/v acetic acid. The concentrations of all 100× DMSO/1% AcOH drug solutions was determined spectrophotometrically by absorbance at 480 nm (ε=[…]). […] For every experiment each drug level and controls were performed in hexuplicate; each experiment was performed in at least duplicate. Error bars represent one standard deviation about the mean for the six wells per lane measured for each drug concentration.

The test system of a further data set is MCF-7/Adr cells. The description is as above. The conditions noted are these: MCF-7/Adr (−/+/+), 4 h treatment. The protocol:
as §1, §2

The test system of the next data set is MDA-MB-231. The description is as above. The note with it: MDA-MB-231 (−/+/−), 4 h treatment. The protocol: as §1, §2
The next data set has as its system MDA-MB-435. Described as above. The note with it: MDA-MB-435 (−/+/−), 4 h treatment. How it is done:
as §1, §2

A further data set addresses T2, estrogen receptor (Homo sapiens, UniProt P03372).
T2 construct: endogenous in cells; host or cells: MCF-7 cells (ATCC); 225,000 g supernatant of sonicated lysate
Put plainly: Estrogen receptor competitive binding assay (3H-E2, MCF-7 cell lysate). The note with it: relative to E/Z-4-OHT = 100.

The subject of data set [14] is Staphylococcus aureus IL-F (VISA).
Data set [15] relates to Staphylococcus aureus Mu 3 (Hetero VISA).
In data set [16] the test system is Staphylococcus aureus IL-A (Hetero VISA).
Data set [17] concerns Staphylococcus aureus 8325 (susceptible). The note with it: for MIC: 8325 susceptible.

For the molecule “RGD-4C: peptide CDCRGDCFC; at b346 the form with disulfide bridges [reference compound]”, in data set [1], the water solubility result is given as “poorly water soluble over a range of pH”.
By IC50 is commonly meant the concentration needed to halve the response being measured. As to `O=c1c(-c2ccc(O)cc2)coc2cc(O)cc(O)c12` [genistein], the “increase in tumor size” value in [2] was over 200%. Further, the IC50 in [3] was 120 µM. Moreover, the antitumor activity in data set [4] was 120 µM.
Turning to “(KLAKKLA)2: antimicrobial peptide (KLAKKLA)2 SEQ ID NO: 3 (microbe homing peptide)”, the “sub-lethal concentration (lysis)” value is over 750 µM with Human erythrocytes and over 272 µM with 3T3 mouse fibroblasts. Also, the “MIC (bacterial lysis)” value in the data set with S. aureus ATCC 25723 is 6 µM; in the data set on E. coli ATCC 25922, 6 µM; with P. aeruginosa ATCC 27853, 3 µM.
For `COc1cccc2c1C(=O)c1c(O)c3c(c(O)c1C2=O)C[C@@](O)(C(=O)CO)C[C@@H]3OC1CC2C(OCN2CN2COC3C(C)OC(O[C@H]4C[C@](O)(C(=O)CO)Cc5c(O)c6c(c(O)c54)C(=O)c4c(OC)cccc4C6=O)CC32)C(C)O1` (stereo partly shown) [doxoform], in [5], the tolerance by mice entry is “poorly tolerated”. Besides, the “times as potent as doxorubicin” value with MCF-7 was 250 times; with MCF-7/ADR, 10,000 times.
`N=C(N)NCCC[C@H](NC(=O)[C@H](CS)NC(=O)[C@H](CC(=O)O)NC(=O)[C@@H](N)CS)C(=O)NCC(=O)N[C@@H](CC(=O)O)C(=O)N[C@@H](CS)C(=O)N[C@@H](Cc1ccccc1)C(=O)N[C@@H](CS)C(=O)NCCOCCNC(=O)CON` [Acyclic-RGD-4C-tether 3] (H-CDCRGDCFC-X1): the IC50 in data set [6] is 0.001 µM.
The term half-life denotes the time needed for the level to fall by half in the phase considered. With `COc1cccc2c1C(=O)c1c(O)c3c(c(O)c1C2=O)C[C@@](O)(C(=O)CO)C[C@@H]3O[C@H]1C[C@H]2C(OCN3CN2CO[C@H]2[C@@H](C)O[C@@H](O[C@H]4C[C@](O)(C(=O)CO)Cc5c(O)c6c(c(O)c54)C(=O)c4c(OC)cccc4C6=O)C[C@@H]23)[C@H](C)O1` (stereo partly shown) [epidoxoform], in [5], the tolerance by mice result is reported as “well tolerated”. Also, the efficacy in mice result in data set [5] (relative to doxorubicin) is given as “improved efficacy in mice, relative to doxorubicin”. In data set [7], the half-life is 2 h.
As for `O=C(O)c1cn(C2CC2)c2cc(N3CCNCC3)c(F)cc2c1=O` [Ciprofloxacin, ciprofloxacin], the antibiotic activity result in [8] (VISA and hetero VISA strains) was “inactive”. Further, the MIC in data set [9] (24 h) is 6 µM (≈ 1.99 µg/mL); in data set [9] (48 h), 12 µM (≈ 3.98 µg/mL).
For the molecule `CN[C@H](CC(C)C)C(=O)N[C@H]1C(=O)N[C@@H](CC(N)=O)C(=O)N[C@H]2C(=O)N[C@H]3C(=O)N[C@H](C(=O)N[C@H](C(=O)O)c4cc(O)cc(O)c4-c4cc3ccc4O)[C@H](O)c3ccc(c(Cl)c3)Oc3cc2cc(c3O[C@@H]2O[C@H](CO)[C@@H](O)[C@H](O)[C@H]2O[C@H]2C[C@](C)(N)[C@H](O)[C@H](C)O2)Oc2ccc(cc2Cl)[C@H]1O` [Vancomycin, vancomycin], the MIC in data set [10] (24 h) came out at 4 µM (≈ 5.8 µg/mL); in data set [10] (48 h), 4 µM (≈ 5.8 µg/mL); in data set [11] (24 h), 3 µM (≈ 4.35 µg/mL); in data set [11] (48 h), 3 µM (≈ 4.35 µg/mL); in data set [12] (24 h) it was 1 µM (≈ 1.45 µg/mL); in data set [12] (48 h), 1 µM (≈ 1.45 µg/mL). Moreover, the MIC in data set [13] (24 h) was 0.5 µM (≈ 0.725 µg/mL); in data set [13] (48 h) it was 1 µM (≈ 1.45 µg/mL); in data set [9] (24 h) it was 0.3 µM (≈ 0.435 µg/mL); in [9] (48 h) it was 0.3 µM (≈ 0.435 µg/mL).
Turning to `CC/C(=C(\c1ccc(O)cc1)c1ccc(OCCN(C)C)cc1)c1ccccc1` [compound 12, E/Z-4-Hydroxytamoxifen, reference compound], the IC50 in the data set with MCF-7 cells is 0.3 µM; with MCF-7/Adr cells, 20 to 40 µM; with MDA-MB-231, 20 to 40 µM; in the data set on MDA-MB-435, 20 to 40 µM.
For the molecule `C#Cc1cccc(Nc2ncnc3cc(OCCOC)c(OCCOC)cc23)c1` [Tarceva, reference compound], the IC50 in [3] was 0.05 µM.
As for `CCC(=C(c1ccc(O)cc1)c1ccc(OCCN(C)CCOCCON=Cc2ccc(O)c(C(N)=O)c2)cc1)c1ccccc1` [10b, E/Z-2-Hydroxy-5-[(2-{2-[(2-{4-[1-(4-hydroxy-phenyl)-2-phenyl-but-1-enyl]-phenoxy}-ethyl)-methyl-amino]-ethoxy}-ethoxyimino)-methyl]-benzamide], at estrogen receptor, the “RBA^OHT” value stood at 3.3.
`O=C(NCN1CCN(c2cc3c(cc2F)c(=O)c(C(=O)O)cn3C2CC2)CC1)c1ccccc1O` [Ciprosaliform, N-(2-Hydroxybenzamido-methyl)-ciprofloxacin]: the MIC in data set [14] (24 hr) is 8/8 μM; in [14] (48 hr) it was 8/8 μM; in [15] (24 hr), 4 µM (≈ 1.92 µg/mL); in [15] (48 hr) it was 8 µM (≈ 3.84 µg/mL); in data set [16] (24 hr), 8/8 μM; in [16] (48 hr), 8/8 μM. Moreover, the MIC is 4 µM (≈ 1.92 µg/mL) in data set [8] (24 hr), 8 µM (≈ 3.84 µg/mL) in [8] (48 hr), 1/1 μM in [17] (24 hr) and 1/1 μM in data set [17] (48 hr). Also, the “fold more active than ciprofloxacin” value in [17] (susceptible strain) was found to be 6 fold.
